Source: patent US20240261417A1, “SOS1 DEGRADING AGENT AND PREPARATION METHOD THEREFOR AND APPLICATION THEREOF” (SHANGHAI LEADINGTAC PHARMACEUTICAL CO. LTD., priority 2021, published 2024)

The compounds below were run on KRAS G12D mutant human metastatic pancreatic adenocarcinoma cells AsPC-1 (assay: 3D cell proliferation inhibition assay, AsPC-1). Details: Homo sapiens, ASPC1, 168 h, 7 days, CTG.
Format: cell-based
Method: Inhibition of 3D cell proliferation by the compounds was investigated on KRAS G12C mutant human non-small cell lung cancer cells NCI-H358 (ATCC or Stem Cell Bank, Chinese Academy of Sciences), KRAS G12D mutant human metastatic pancreatic adenocarcinoma cells AsPC-1 (ATCC), KRAS G12V mutant human lung adenocarcinoma cells NCI-H441 (ATCC), and KRAS G13D mutant human colorectal adenocarcinoma epithelial cells DLD-1 (ATCC). The specific procedures were as follows:
200 nL of compound solution diluted in a gradient was added to corresponding microwells of a 384-well low-adsorption microwell plate (Corning, 3657) using an Echo sonic pipetting system (Labcyte, Echo 550), so that the final concentration of the test compound in the reaction system was in a range of 20000 nM-0.008 nM. Then 40 μL of cells at a certain density were added to the corresponding microplate. In addition to test wells for the test compounds, both a DMSO control well and a medium control well were set, with the DMSO control well containing DMSO and cells and the medium well containing only medium. After sample loading, the plate cover was applied, and the 384-well low-adsorption microplate was incubated in an incubator at 37° C. with 5% carbon dioxide for 7 days. After 7 days, the microplate was taken out, and 40 μL of CTG reagent (Promega, G9683) was added to each well. The plate was incubated at room temperature for 30 min and read on a microplate reader EnVision using the chemiluminescence program. The inhibition rates of the compounds at each concentration were calculated by the formula for the percentage inhibition of cell proliferation: inhibition rate %=(mean value of DMSO control group−single concentration reading value of compound)/(mean value of DMSO control group−mean value of medium control group)×100, and then nonlinear curve fitting was performed by GraphPad Prism 8 in the logarithmic concentration-inhibition rate to obtain the IC50 values of the compounds.
CNCc1ccccc1-c1csc([C@@H](C)Nc2nc(C)nc3cc(OC)c([C@H]4CC[C@H](C(=O)N5CCN(CC6CCC7(CC6)CCN(C(=O)c6ccc(OC)c(N8CCC(=O)NC8=O)c6)CC7)CC5)CC4)cc23)c1 [Example 73, 1-(2-methoxy-5-(9-((4-((1R,4R)-4-(7-methoxy-2-methyl-4-(((R)-1-(4-(2-((methylamino)methyl)phenyl)thien-2-yl)ethyl)amino)quinazolin-6-yl)cyclohexane-1-carbonyl)piperazin-1-yl)methyl)-3-azaspiro[5.5]undecane-3-carbonyl)phenyl)dihydropyrimidine-2,4(1H,3H)-dione] was tested, and the IC50 was 100 to 1000 nM. COc1cc2nc(C)nc(N[C@H](C)c3cc(N)cc(C(F)(F)F)c3)c2cc1[C@H]1CC[C@H](C(=O)N2CCN(CC3CCC4(CC3)CCN(C(=O)c3ccc(Cl)c(N5CCC(=O)NC5=O)c3)CC4)CC2)CC1 [Example 2, 1-(5-(9-((4-((1R,4R)-4-(4-(((R)-1-(3-amino-5-(trifluoromethyl)phenyl)ethyl)amino)-7-methoxy-2-methylquinazolin-6-yl)cyclohexane-1-carbonyl)piperazin-1-yl)methyl)-3-azaspiro[5.5]undecane-3-carbonyl)-2-chlorophenyl)dihydropyrimidine-2,4(1H,3H)-dione] was tested, and the IC50 was 100 to 1000 nM. In the case of COc1cc2nc(C)nc(N[C@H](C)c3cc(N)cc(C(F)(F)F)c3)c2cc1[C@H]1CC[C@H](C(=O)N2CCC(CCOCC3CCN(C(=O)c4ccc(Cl)c(N5CCC(=O)NC5=O)c4)CC3)CC2)CC1 [Example 19, 1-(5-(4-((2-(1-((1R,4R)-4-(4-(((R)-1-(3-amino-5-(trifluoromethyl)phenyl)ethyl)amino)-7-methoxy-2-methylquinazolin-6-yl)cyclohexane-1-carbonyl)piperidin-4-yl)ethoxy)methyl)piperidine-1-carbonyl)-2-chlorophenyl)dihydropyrimidine-2,4(1H,3H)-dione], the IC50 is reported as 100 to 1000 nM. Work on COc1cc2nc(C)nc(N[C@H](C)c3cc(N)cc(C(F)(F)F)c3)c2cc1[C@H]1CC[C@H](C(=O)N2CCN(CCC3CCC4(CC3)CCN(C(=O)c3ccc(Cl)c(N5CCC(=O)NC5=O)c3)CC4)CC2)CC1 [Example 1, 1-(5-(9-(2-(4-((1R,4R)-4-(4-(((R)-1-(3-amino-5-(trifluoromethyl)phenyl)ethyl)amino)-7-methoxy-2-methylquinazolin-6-yl)cyclohexane-1-carbonyl)piperazin-1-yl)ethyl)-3-azaspiro[5.5]undecane-3-carbonyl)-2-chlorophenyl)dihydropyrimidine-2,4(1H,3H)-dione] yielded an IC50 of 15 to 30 nM. Work on COc1cc2nc(C)nc(N[C@H](C)c3cccc4c3CCS4(=O)=O)c2cc1[C@H]1CC[C@H](C(=O)N2CCN(CC3CCC4(CC3)CCN(C(=O)c3ccc(Cl)c(N5CCC(=O)NC5=O)c3)CC4)CC2)CC1 [Example 10, 1-(2-chloro-5-(9-((4-((1R,4R)-4-(4-(((R)-1-(1,1-dioxo-2,3-dihydrobenzo[b]thiophen-4-yl)ethyl)amino)-7-methoxy-2-methylquinazolin-6-yl)cyclohexane-1-carbonyl)piperazin-1-yl)methyl)-3-azaspiro[5.5]undecane-3-carbonyl)phenyl)dihydropyrimidine-2,4(1H,3H)-dione] yielded an IC50 of 30 to 50 nM. For COc1cc2nc(C)nc(N[C@H](C)c3cc(N)cc(C(F)(F)F)c3)c2cc1[C@H]1CC[C@H](C(=O)N2CCN(CCOCC3CCN(C(=O)c4ccc(Cl)c(N5CCC(=O)NC5=O)c4)CC3)CC2)CC1 [Example 33, 1-(5-(4-((2-(4-((1R,4R)-4-(4-(((R)-1-(3-amino-5-(trifluoromethyl)phenyl)ethyl)amino)-7-methoxy-2-methylquinazolin-6-yl)cyclohexane-1-carbonyl)piperazin-1-yl)ethoxy)methyl)piperidine-1-carbonyl)-2-chlorophenyl)dihydropyrimidine-2,4(1H,3H)-dione], the IC50 was 100 to 1000 nM.
